For the test, the system named is Mouse preadipocyte strain 3T3-L1. In words: Inhibition of differentiation as an indication of acetic acid uptake. The class given is cell-based. The note with it: control (0.01% dimethylsulfoxide) = 100%; for activity at 0.1 µM: Mus musculus, 3T3-L1, 0.1 μM test substance, read-out: Rate of Uptake (%) of [2-14C] acetic acid. The gist of the method: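 Confluent 3T3-L1 cells induced to differentiate for 4 days (insulin, IBMX, dexamethasone, 5% FBS) with test compound at 0.1 μM final or 0.01% DMSO, then 2 days in insulin maintenance medium, at 37 °C, 10% CO2. [2-14C]acetic acid uptake over 1 hr counted by scintillation; expressed as % of DMSO control.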

With `Cc1ccc(NC(=O)c2cc([N+](=O)[O-])ccc2Cl)cc1` [Example 1, N-(4-Methylphenyl)-(2-chloro-5-nitrophenyl)carboxamide], the activity at 0.1 µM is 64%.

For the compound `O=C(Nc1ccc(-c2ccccc2)cc1)c1cc([N+](=O)[O-])ccc1Cl` [Example 2, N-(4-Phenylphenyl)-(2-chloro-5-nitrophenyl)carboxamide], the activity at 0.1 µM worked out at 42.7%.

Regarding `Cc1cnc(NC(=O)c2cc([N+](=O)[O-])ccc2Cl)s1` [Example 4, N-(5-Methylthiazol-2-yl)-(2-chloro-5-nitrophenyl)carboxamide], the activity at 0.1 µM was determined as 92.5%.

For the compound `O=C(Nc1cccc(-c2ccccc2)c1)c1cc([N+](=O)[O-])ccc1Cl` [Example 5, N-(3-Phenylphenyl)-(2-chloro-5-nitrophenyl)carboxamide], the activity at 0.1 µM is 43.4%.

For `COc1ccc(NC(=O)c2cc([N+](=O)[O-])ccc2Cl)cc1-c1ccccc1` [Example 6, N-(4-Methoxy-3-phenyl)phenyl-(2-chloro-5-nitrophenyl)carboxamide], the activity at 0.1 µM is 55.8%.

On to `O=C(Nc1ccccc1-c1ccccc1)c1cc([N+](=O)[O-])ccc1Cl` [Example 7, N-(2-Phenylphenyl)-(2-chloro-5-nitrophenyl)carboxamide], for which the activity at 0.1 µM is 65%.

For the compound `O=C(Nc1ccc(-c2ccccn2)cc1)c1cc([N+](=O)[O-])ccc1Cl` [Example 8, N-[4-(2-Pyridyl)phenyl]-(2-chloro-5-nitrophenyl)carboxamide], for the setting “0.1 μM test substance”, the “Rate of Uptake (%) of [2-14C] acetic acid” value is given as 47.2%.

Turning to `CCCCCc1ccc(NC(=O)c2cc([N+](=O)[O-])ccc2Cl)cc1` [Example 16, N-(4-Pentylphenyl)-(2-chloro-5-nitrophenyl)carboxamide], the activity at 0.1 µM amounted to 83.7%.

`CCOC(=O)c1ccc(NC(=O)c2cc([N+](=O)[O-])ccc2Cl)cc1` [Example 26, N-(4-Ethoxycarbonylphenyl)-(2-chloro-5-nitrophenyl)carboxamide]: the activity at 0.1 µM came to 87.5%.

For the compound `CC(C)(C)c1cc(NC(=O)c2cc([N+](=O)[O-])ccc2Cl)cc(C(C)(C)C)c1O` [Example 29, N-(3,5-Di-t-butyl-4-hydroxyphenyl)-(2-chloro-5-nitrophenyl)carboxamide], the activity at 0.1 µM was 68.6%.

As to `O=C(Nc1cccc(NS(=O)(=O)c2ccccc2)c1)c1cc([N+](=O)[O-])ccc1Cl` [Example 30, N-(3-Benzensulfonylaminophenyl)-(2-chloro-5-nitrophenyl)carboxamide], the activity at 0.1 µM stood at 60.1%.

In the case of `O=C(Nc1nc(-c2ccccc2)cs1)c1cc([N+](=O)[O-])ccc1Cl` [Example 35, N-(4-Phenylthiazol-2-yl)-(2-chloro-5-nitrophenyl)carboxamide], the activity at 0.1 µM is 71.5%.

Take `O=C(Nc1nc(-c2cccnc2)cs1)c1cc([N+](=O)[O-])ccc1Cl` [Example 37, N-[4-(3-Pyridyl)thiazol-2-yl)-(2-chloro-5-nitrophenyl)carboxamide]: the activity at 0.1 µM turned out to be 38.6%.

Regarding `O=C(Nc1nc(-c2ccccn2)cs1)c1cc([N+](=O)[O-])ccc1Cl` [Example 38, N-[4-(2-Pyridyl)thiazol-2-yl)-(2-chloro-5-nitrophenyl)carboxamide], the activity at 0.1 µM was found to be 82%.

Consider `Cc1ccccc1-c1csc(NC(=O)c2cc([N+](=O)[O-])ccc2Cl)n1` [Example 39, N-[4-(2-Methylphenyl)thiazol-2-yl]-(2-chloro-5-nitrophenyl)carboxamide], for which the activity at 0.1 µM is 62.5%.

Take `Cc1cccc(-c2csc(NC(=O)c3cc([N+](=O)[O-])ccc3Cl)n2)c1` [Example 40, N-[4-(3-Methylphenyl)thiazol-2-yl)-(2-chloro-5-nitrophenyl)carboxamide]: the activity at 0.1 µM came out at 45.3%.

As to `O=C(Nc1nc(-c2cccc3ccccc23)cs1)c1cc([N+](=O)[O-])ccc1Cl` [Example 41, N-[4-(1-Naphthyl)thiazol-2-yl]-(2-chloro-5-nitrophenyl)carboxamide], the activity at 0.1 µM turned out to be 53.8%.

As for `CCc1ccc(-c2csc(NC(=O)c3cc([N+](=O)[O-])ccc3Cl)n2)cc1` [Example 44, N-[4-(4-Ethylphenyl)thiazol-2-yl]-(2-chloro-5-nitrophenyl)carboxamide], the activity at 0.1 µM worked out at 67.6%.

With `Cc1ccc(-c2nc(NC(=O)c3cc([N+](=O)[O-])ccc3Cl)sc2C)cc1Cl` [Example 46, N-[4-(3-Chloro-4-methylphenyl)-5-methylthiazol-2-yl]-(2-chloro-5-nitrophenyl)carboxamide], the activity at 0.1 µM was determined as 67%.

For `Cc1nc(NC(=O)c2cc([N+](=O)[O-])ccc2Cl)sc1C` [Example 47], the activity at 0.1 µM is 63.1%.

For `O=C(Nc1cccnc1)c1cc([N+](=O)[O-])ccc1Cl` [Example 50, N-(3-Pyridyl)-(2-chloro-5-nitrophenyl)carboxamide], the activity at 0.1 µM amounted to 61.4%.

As to `Cc1cccc(NC(=O)c2cc([N+](=O)[O-])ccc2Cl)n1` [Example 51, N-(6-Methylpyridin-2-yl)-(2-chloro-5-nitrophenyl)carboxamide], the activity at 0.1 µM amounted to 57.5%.

In the case of `Cc1ccc(NC(=O)c2cc([N+](=O)[O-])ccc2Cl)nc1` [Example 52, N-(5-Methylpyridin-2-yl)-(2-chloro-5-nitrophenyl)carboxamide], the activity at 0.1 µM came to 52.3%.

As to `O=C(Nc1ccc2c3c(cccc13)CC2)c1cc([N+](=O)[O-])ccc1Cl` [Example 54, N-(Acenaphthen-5-yl)-(2-chloro-5-nitrophenyl)carboxamide], the activity at 0.1 µM was 51.3%.

For `O=C(Nc1cccc2cccnc12)c1cc([N+](=O)[O-])ccc1Cl` [Example 57, N-(8-Quinolinyl)-(2-chloro-5-nitrophenyl)carboxamide], the activity at 0.1 µM is 58.4%.

As to `Cc1ccnc(NC(=O)c2cc([N+](=O)[O-])ccc2Cl)n1` [Example 65, N-(4-Methylpyrimidin-2-yl)-(2-chloro-5-nitrophenyl)carboxamide], the activity at 0.1 µM is 63.4%.

For `COC(=O)c1sccc1NC(=O)c1cc([N+](=O)[O-])ccc1Cl` [Example 66, N-(2-Methoxycarbonylthiophen-3-yl)-(2-chloro-5-nitrophenyl)carboxamide], the activity at 0.1 µM turned out to be 70.7%.

For the compound `Cc1cc(Cl)nc(NC(=O)c2cc([N+](=O)[O-])ccc2Cl)n1` [Example 78, N-(4-Chloro-6-methylpyrimidin-2-yl)-(2-chloro-5-nitrophenyl)carboxamide], the activity at 0.1 µM was 68.2%.

Turning to `Cn1c(NC(=O)c2cc([N+](=O)[O-])ccc2Cl)nc2ccccc21` [Example 82, N-(1-Methylbenzimidazol-2-yl)-(2-chloro-5-nitrophenyl)carboxamide], the activity at 0.1 µM turned out to be 83%.

As for `O=C(Nc1nncs1)c1cc([N+](=O)[O-])ccc1Cl` [Example 85, N-(1,3,4-Thiadiazol-2-yl)-(2-chloro-5-nitrophenyl)carboxamide], the activity at 0.1 µM worked out at 67.1%.

Turning to `O=C(Nc1cccc2nsnc12)c1cc([N+](=O)[O-])ccc1Cl` [Example 86, N-(2,1,3-Benzothiazol-4-yl)-(2-chloro-5-nitrophenyl)carboxamide], the activity at 0.1 µM came out at 51.7%.

On to `O=C(Nc1ccc(S(=O)(=O)Nc2nccs2)cc1)c1cc([N+](=O)[O-])ccc1Cl` [Example 96, N-[4-(Thiazol-2-yl)aminosulfonyl]phenyl-(2-chloro-5-nitrophenyl)carboxamide], for which the activity at 0.1 µM is 98.7%.

As to `O=C(Nc1ccc(S(=O)(=O)Nc2ccc(Cl)nn2)cc1)c1cc([N+](=O)[O-])ccc1Cl` [Example 102, N-[4-[(6-Chloropyridazin-3-yl)aminosulfonyl]phenyl]-(2-chloro-5-nitrophenyl)carboxamide], the activity at 0.1 µM amounted to 76.8%.

For the compound `COc1cnc(NS(=O)(=O)c2ccc(NC(=O)c3cc([N+](=O)[O-])ccc3Cl)cc2)nc1` [Example 105, N-[4-[(5-Methoxypyrimidin-2-yl)aminosulfonyl]phenyl]-(2-chloro-5-nitrophenyl)carboxamide], the activity at 0.1 µM is 89.4%.

With `N=C(N)NS(=O)(=O)c1ccc(NC(=O)c2cc([N+](=O)[O-])ccc2Cl)cc1` [Example 106, N-[4-(Amidinoaminosulfonyl)phenyl]-(2-chloro-5-nitrophenyl)carboxamide], the activity at 0.1 µM turned out to be 82%.

Consider `O=C(Nc1ccc(S(=O)(=O)Nc2ccnn2-c2ccccc2)cc1)c1cc([N+](=O)[O-])ccc1Cl` [Example 108, N-[4-[(2-Phenyl-(2H)-pyrazol-3-yl)aminosulfonyl]phenyl]-(2-chloro-5-nitrophenyl)carboxamide], for which the activity at 0.1 µM turned out to be 87.7%.

Consider `O=C(Nc1nnc(-c2ccccc2)s1)c1cc([N+](=O)[O-])ccc1Cl` [Example 110, N-(5-Phenyl-[1,3,4]thiadiazol-2-yl)-(2-chloro-5—nitrophenyl)carboxamide], for which the activity at 0.1 µM turned out to be 84.6%.

`O=C(Nc1nc(-c2ccc(F)c(F)c2)cs1)c1cc([N+](=O)[O-])ccc1Cl` [Example 111, N-[4-(3,4-Difluorophenyl)thiazol-2-yl]-(2-chloro-5-nitrophenyl)carboxamide]: the activity at 0.1 µM turned out to be 61.2%.

In the case of `Cc1ccc(S(=O)(=O)Nc2ccc(NC(=O)c3cc([N+](=O)[O-])ccc3Cl)cc2)cc1` [Example 116, N-[4-(4-Toluenesulfonylamino)phenyl]-(2-chloro-5-nitrophenyl)carboxamide], the activity at 0.1 µM amounted to 95.1%.

As to `CC(=O)Nc1ccc(NC(=O)c2cc([N+](=O)[O-])ccc2Cl)cc1` [Example 117, N-(4-Acetylaminophenyl)-(2-chloro-5-nitrophenyl)carboxamide], the activity at 0.1 µM was 87%.

`O=C(Nc1ccc(NC(=O)c2cc([N+](=O)[O-])ccc2Cl)cc1)c1ccccc1` [Example 119, N-(4-Benzoylaminophenyl)-(2-chloro-5-nitrophenyl)carboxamide]: the activity at 0.1 µM amounted to 65.7%.

For `O=C(Nc1ccc(S(=O)(=O)Nc2cccnc2)cc1)c1cc([N+](=O)[O-])ccc1Cl` [Example 178], the activity at 0.1 µM came out at 66.2%.
